From ChEMBL document CHEMBL5291721, “A preclinical secondary pharmacology resource illuminates target-adverse drug reaction associations of marketed drugs” (Nat Commun, 2023) come the findings set out here.

Where only a bound is given, the exact number is not on record here.

Test [1] has as its target T1, Androgen receptor (Rattus norvegicus, UniProt P15207).
T1 sequence (P15207 whole entry): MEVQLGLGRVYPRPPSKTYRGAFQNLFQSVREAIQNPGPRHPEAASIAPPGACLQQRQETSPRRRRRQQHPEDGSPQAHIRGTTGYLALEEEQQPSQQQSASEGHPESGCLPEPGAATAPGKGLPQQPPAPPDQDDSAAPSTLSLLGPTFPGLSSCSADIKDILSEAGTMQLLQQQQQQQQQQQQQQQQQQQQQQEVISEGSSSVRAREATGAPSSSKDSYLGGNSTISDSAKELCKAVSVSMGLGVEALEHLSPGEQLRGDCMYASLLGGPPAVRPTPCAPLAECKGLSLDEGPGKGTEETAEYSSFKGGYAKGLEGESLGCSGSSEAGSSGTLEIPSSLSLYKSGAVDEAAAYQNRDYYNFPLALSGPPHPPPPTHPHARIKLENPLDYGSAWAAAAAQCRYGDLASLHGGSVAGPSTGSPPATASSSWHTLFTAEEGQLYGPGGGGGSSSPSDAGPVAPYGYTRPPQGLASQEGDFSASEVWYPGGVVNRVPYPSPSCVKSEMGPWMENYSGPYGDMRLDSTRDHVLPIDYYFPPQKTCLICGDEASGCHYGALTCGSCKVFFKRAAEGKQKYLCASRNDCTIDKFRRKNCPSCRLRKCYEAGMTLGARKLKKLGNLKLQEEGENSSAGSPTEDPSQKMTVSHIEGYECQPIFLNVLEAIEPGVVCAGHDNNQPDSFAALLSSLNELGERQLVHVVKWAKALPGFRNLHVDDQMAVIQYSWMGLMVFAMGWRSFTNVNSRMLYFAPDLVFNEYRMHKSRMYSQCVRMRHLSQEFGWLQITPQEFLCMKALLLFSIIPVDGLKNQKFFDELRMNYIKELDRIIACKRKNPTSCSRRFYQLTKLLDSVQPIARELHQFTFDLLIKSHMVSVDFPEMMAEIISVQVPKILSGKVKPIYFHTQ
The format is functional.

For test [2], the target named is T2, Alpha-1A adrenergic receptor (Homo sapiens, UniProt P35348).
T2 sequence (P35348 whole entry): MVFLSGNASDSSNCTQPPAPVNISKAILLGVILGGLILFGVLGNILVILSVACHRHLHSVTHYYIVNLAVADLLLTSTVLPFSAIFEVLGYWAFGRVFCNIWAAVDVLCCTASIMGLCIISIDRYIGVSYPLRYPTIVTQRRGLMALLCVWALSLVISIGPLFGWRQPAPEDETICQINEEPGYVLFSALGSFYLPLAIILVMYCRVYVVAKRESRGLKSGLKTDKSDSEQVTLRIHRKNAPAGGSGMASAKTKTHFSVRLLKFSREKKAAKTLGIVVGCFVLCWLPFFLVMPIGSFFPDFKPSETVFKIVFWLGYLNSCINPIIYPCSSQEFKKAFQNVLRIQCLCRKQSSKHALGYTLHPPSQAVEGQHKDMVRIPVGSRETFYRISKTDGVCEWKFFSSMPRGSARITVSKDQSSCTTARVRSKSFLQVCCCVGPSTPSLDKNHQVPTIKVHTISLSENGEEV

The next test concerns the target T3, Estrogen receptor (Homo sapiens, UniProt P03372).
T3 sequence (P03372 whole entry): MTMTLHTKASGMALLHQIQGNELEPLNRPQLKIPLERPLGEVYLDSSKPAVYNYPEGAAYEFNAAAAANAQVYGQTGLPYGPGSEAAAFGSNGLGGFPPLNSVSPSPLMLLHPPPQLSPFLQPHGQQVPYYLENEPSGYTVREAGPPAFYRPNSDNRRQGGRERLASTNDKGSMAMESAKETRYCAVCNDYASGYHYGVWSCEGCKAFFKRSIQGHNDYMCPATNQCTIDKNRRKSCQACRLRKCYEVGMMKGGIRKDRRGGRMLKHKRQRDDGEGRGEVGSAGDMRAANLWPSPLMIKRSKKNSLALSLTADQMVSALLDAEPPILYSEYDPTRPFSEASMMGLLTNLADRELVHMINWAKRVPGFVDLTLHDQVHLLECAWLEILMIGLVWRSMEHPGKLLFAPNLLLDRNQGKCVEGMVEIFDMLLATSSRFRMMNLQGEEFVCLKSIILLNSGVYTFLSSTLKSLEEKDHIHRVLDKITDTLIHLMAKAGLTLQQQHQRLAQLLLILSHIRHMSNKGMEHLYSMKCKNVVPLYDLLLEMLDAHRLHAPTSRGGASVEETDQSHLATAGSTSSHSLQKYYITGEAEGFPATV

In test [3] the target is 5-hydroxytryptamine receptor 2A (Homo sapiens, UniProt P28223). In kind it is functional, cell-based.
In test [4] the target is T1, Androgen receptor.
Test [5] concerns the target T4, 5-hydroxytryptamine receptor 1A (Homo sapiens, UniProt P08908).
T4 sequence (P08908 whole entry): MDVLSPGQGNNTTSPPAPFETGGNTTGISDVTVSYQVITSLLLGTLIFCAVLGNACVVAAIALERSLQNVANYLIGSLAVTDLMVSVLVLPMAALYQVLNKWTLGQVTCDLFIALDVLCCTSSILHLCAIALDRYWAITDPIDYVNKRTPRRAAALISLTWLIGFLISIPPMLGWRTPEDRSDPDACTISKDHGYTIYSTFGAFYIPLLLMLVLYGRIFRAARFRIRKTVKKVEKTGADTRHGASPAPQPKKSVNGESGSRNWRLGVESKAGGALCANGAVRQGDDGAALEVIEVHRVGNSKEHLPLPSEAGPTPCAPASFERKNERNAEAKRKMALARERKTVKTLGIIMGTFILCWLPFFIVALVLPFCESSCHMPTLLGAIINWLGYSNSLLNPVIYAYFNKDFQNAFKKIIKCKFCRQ

For test [6], the target named is Gamma-aminobutyric acid receptor subunit alpha-1/alpha-2/beta-2/gamma-2 (Homo sapiens, UniProt P14867+P18507+P47869+P47870). The format is functional, cell-based.
Test [7] has as its target Voltage-dependent N-type calcium channel subunit alpha-1B (Rattus norvegicus, UniProt Q02294). In kind it is functional.
Test [8] addresses 5-hydroxytryptamine receptor 2B (Homo sapiens, UniProt P41595).
Further: assay procedure not described here.

5-hydroxytryptamine receptor 2A, sequence (P28223 whole entry): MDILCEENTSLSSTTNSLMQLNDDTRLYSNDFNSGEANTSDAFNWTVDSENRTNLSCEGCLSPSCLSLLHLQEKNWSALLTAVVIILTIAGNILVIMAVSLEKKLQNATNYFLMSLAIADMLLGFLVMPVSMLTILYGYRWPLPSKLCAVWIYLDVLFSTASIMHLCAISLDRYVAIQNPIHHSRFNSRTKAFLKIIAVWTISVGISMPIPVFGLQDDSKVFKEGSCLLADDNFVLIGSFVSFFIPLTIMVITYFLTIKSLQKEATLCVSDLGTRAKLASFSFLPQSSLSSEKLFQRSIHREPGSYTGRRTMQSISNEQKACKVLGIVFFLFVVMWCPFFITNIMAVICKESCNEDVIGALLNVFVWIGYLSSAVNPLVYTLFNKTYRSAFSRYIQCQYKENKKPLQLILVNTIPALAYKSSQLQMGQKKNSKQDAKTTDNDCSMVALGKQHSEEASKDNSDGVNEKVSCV
5-hydroxytryptamine receptor 2B, sequence (P41595 whole entry): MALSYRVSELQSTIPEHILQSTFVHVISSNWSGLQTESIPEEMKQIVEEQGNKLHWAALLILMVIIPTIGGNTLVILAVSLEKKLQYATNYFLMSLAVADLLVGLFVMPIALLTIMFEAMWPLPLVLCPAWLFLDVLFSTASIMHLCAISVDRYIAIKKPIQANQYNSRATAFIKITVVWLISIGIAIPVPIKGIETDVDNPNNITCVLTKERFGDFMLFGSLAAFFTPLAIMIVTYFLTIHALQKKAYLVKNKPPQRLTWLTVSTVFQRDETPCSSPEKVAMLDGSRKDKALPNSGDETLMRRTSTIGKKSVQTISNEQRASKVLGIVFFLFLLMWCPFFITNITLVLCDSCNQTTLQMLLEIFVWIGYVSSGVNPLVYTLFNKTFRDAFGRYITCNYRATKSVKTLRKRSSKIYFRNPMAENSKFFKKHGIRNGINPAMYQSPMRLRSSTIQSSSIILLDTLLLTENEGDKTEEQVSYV
Gamma-aminobutyric acid receptor subunit alpha-1/alpha-2/beta-2/gamma-2, sequence (P14867 whole entry): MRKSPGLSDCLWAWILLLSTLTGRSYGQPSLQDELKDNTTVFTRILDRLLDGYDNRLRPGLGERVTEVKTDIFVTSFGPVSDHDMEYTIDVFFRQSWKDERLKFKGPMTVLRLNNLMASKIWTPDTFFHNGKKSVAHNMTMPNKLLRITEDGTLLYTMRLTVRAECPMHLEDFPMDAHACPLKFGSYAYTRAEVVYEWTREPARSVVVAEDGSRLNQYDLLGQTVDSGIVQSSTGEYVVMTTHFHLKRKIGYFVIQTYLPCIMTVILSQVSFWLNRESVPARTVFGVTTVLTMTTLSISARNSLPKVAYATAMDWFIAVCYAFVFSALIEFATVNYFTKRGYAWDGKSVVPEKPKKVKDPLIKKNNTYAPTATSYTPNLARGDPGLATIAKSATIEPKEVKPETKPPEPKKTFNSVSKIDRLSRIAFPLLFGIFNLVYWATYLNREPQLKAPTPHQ
Gamma-aminobutyric acid receptor subunit alpha-1/alpha-2/beta-2/gamma-2, sequence (P47870 whole entry): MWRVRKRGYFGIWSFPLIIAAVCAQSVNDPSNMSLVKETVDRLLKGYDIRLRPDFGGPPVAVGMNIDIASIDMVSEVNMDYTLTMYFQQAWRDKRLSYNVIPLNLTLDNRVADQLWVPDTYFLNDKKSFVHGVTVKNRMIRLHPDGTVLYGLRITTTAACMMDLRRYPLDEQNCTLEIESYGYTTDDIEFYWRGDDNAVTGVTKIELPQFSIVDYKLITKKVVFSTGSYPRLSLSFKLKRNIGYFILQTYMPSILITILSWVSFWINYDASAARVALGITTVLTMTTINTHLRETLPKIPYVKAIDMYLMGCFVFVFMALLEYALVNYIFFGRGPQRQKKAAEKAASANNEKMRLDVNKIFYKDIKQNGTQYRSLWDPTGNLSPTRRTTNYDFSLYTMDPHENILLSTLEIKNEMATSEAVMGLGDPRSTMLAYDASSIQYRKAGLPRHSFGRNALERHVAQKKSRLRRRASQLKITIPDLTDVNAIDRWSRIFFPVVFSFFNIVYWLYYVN
Gamma-aminobutyric acid receptor subunit alpha-1/alpha-2/beta-2/gamma-2, sequence (P18507 whole entry): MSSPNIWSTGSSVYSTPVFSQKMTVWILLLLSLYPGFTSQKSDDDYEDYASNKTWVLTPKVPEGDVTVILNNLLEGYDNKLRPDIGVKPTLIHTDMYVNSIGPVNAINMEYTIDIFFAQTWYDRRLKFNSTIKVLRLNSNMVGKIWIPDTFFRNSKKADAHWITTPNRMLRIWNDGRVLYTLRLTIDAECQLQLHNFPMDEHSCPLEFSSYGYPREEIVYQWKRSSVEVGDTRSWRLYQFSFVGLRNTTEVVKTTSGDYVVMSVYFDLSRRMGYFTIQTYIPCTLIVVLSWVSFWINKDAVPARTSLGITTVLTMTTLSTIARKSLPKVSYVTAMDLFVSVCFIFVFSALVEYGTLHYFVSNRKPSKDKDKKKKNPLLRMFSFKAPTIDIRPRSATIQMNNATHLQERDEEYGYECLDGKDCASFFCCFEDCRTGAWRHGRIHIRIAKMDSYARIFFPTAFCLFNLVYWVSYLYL
Gamma-aminobutyric acid receptor subunit alpha-1/alpha-2/beta-2/gamma-2, sequence (P47869 whole entry): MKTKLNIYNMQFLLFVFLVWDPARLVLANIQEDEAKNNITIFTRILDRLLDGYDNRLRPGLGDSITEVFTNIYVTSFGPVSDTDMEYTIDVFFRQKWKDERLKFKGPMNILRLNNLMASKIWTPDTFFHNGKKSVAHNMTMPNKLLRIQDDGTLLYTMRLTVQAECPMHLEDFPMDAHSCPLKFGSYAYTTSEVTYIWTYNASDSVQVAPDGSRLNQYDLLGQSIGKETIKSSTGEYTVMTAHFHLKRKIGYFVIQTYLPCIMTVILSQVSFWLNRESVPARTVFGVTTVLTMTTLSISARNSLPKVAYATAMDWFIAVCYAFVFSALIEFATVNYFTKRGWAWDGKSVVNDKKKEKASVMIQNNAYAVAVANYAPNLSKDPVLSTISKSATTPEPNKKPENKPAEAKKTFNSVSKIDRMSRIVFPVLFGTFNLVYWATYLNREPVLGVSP

As to `O=C1C(O)=C([C@H]2CC[C@H](c3ccc(Cl)cc3)CC2)C(=O)c2ccccc21` [ATOVAQUONE], the half-maximal activity concentration (AC50) (on Androgen receptor [1]; in test [2]; on Estrogen receptor; in test [3]) was greater than 30 µM in each case.

In the case of `COc1ccc(CCNCC(O)COc2cccc(C)c2)cc1OC` (stereo not given) [BEVANTOLOL], the AC50 was 1.2 µM in test [2]; greater than 10 µM at Androgen receptor [4]; greater than 10 µM at Estrogen receptor; 1.56 µM in [5]; greater than 10 µM in [3].

With `CC(CC1c2ccccc2CCc2ccccc21)CN(C)C` (stereo not given) [BUTRIPTYLINE], the AC50 in [6] is greater than 30 µM; in test [3], 15 µM.

As to `CC(C)(C)NCC(O)COc1cccc2c1CCC(=O)N2` (stereo not given) [CARTEOLOL], the half-maximal activity concentration (AC50) (in test [2]; on Androgen receptor [4]; in [3]) was greater than 10 µM throughout.

On to `Clc1ccccc1C(c1ccccc1)(c1ccccc1)n1ccnc1` [CLOTRIMAZOLE], for which the AC50 in test [2], in [7], in test [8] and in [5] was greater than 10 µM throughout.

Consider `COc1ccc2c3c1O[C@H]1[C@@H](O)CC[C@H]4[C@@H](C2)N(C)CC[C@@]341` [DIHYDROCODEINE], for which the AC50 in [6] and in test [3] was greater than 30 µM each time.

`NC(=O)OCC(COC(N)=O)c1ccccc1` [FELBAMATE]: the half-maximal activity concentration (AC50) (in test [2]; on Androgen receptor [4]; on Estrogen receptor; in [3]) was greater than 10 µM each time.

Turning to `Fc1ccc(C(c2ccccc2)(c2ccccc2F)n2ccnc2)cc1` (stereo not given) [FLUTRIMAZOLE], the concentration at half-maximal activity (AC50) (at Androgen receptor [1]; at Estrogen receptor; in [3]) was greater than 30 µM each time.

Consider `Cc1c(OCC(F)(F)F)ccnc1C[S+]([O-])c1nc2ccccc2[nH]1` (stereo not given) [LANSOPRAZOLE], for which the AC50 in [2], in [7], in test [8] and in test [5] was greater than 10 µM each time.

On to `NC(=O)CN1CC(O)CC1=O` (stereo not given) [OXIRACETAM], for which the AC50 (on Androgen receptor [1]; in test [2]; in [6]; in test [3]) was greater than 30 µM each time.

Consider `C[C@H]1COc2c(C3(N)CC3)c(F)cc3c(=O)c(C(=O)O)cn1c23` [PAZUFLOXACIN], for which the AC50 in [2] and in test [3] was greater than 10 µM in each case.

`C[C@@H]1O[C@@H](O[C@@H]2C=C3CC[C@@H]4[C@H](CC[C@]5(C)[C@@H](c6ccc(=O)oc6)CC[C@]45O)[C@@]3(C)CC2)[C@H](O)[C@H](O)[C@H]1O` [PROSCILLARIDIN] returned an AC50 at Androgen receptor [1] greater than 30 µM.

In the case of `CC/C(=C(\c1ccccc1)c1ccc(OCCN(C)C)cc1)c1ccccc1` [TAMOXIFEN], the concentration at half-maximal activity (AC50) is greater than 10 µM in test [2], greater than 10 µM in [7], 0.896 µM in test [8] and greater than 10 µM in test [5].

On to `COc1cccc(C2(O)CCCCC2CN(C)C)c1` (stereo not given) [TRAMADOL], for which the AC50 in test [2] was greater than 10 µM; at Androgen receptor [4], greater than 30 µM; in test [7], greater than 10 µM; on Estrogen receptor, greater than 30 µM; in test [8], greater than 10 µM.

`Cc1nnc2n1-c1ccc(Cl)cc1C(c1ccccc1Cl)=NC2` [TRIAZOLAM]: the results for the AC50 in [2], in test [5] and in test [3] were greater than 10 µM, greater than 10 µM and greater than 30 µM, respectively.
